Measured values from article PMC8224398, “SARS-CoV-2 mutations in MHC-I-restricted epitopes evade CD8^+ T cell responses” (Science Immunology, 2021).

Test system: CD8+ T cells in PBMCs of COVID-19 patients
Assay type: cell-based, human

YFQPRTFLL [YLQ mutant]
wild type tetramer-positive CD8+ T cells after expansion with mutant versus wild type peptide (in words): reduced numbers of YLQ tetramer positive cells
